Assays:
[1] = carcinoid tumor patients; cited from earlier work
TPH = details: background statement; cited from earlier work
[2] = system: central 5-HT production / CNS functions; details: cited from earlier work
[3] = system: jejunal mucosal 5-HT in mice (C57 BL6); assay: Reduction of mucosal 5-HT concentrations (Example C, repeated oral dosing); type: in vivo, mouse; details: after three oral doses (first 10 or 50 mg/kg, then two doses of 50 mg/kg) (title), P-value class
[4] = biological target: T1, Recombinant human TPH1 (MBP tagged) (Homo sapiens, UniProt P17752); assay: TPH1 in vitro inhibition assay (kinetic fluorescence); type: biochemical; details: read-out: TPH1 Range (TPH1 inhibition IC50)
T1 construct: cloning full length human TPH1 cDNA in to a bacterial pMAL-c5E expression vector; made in house; host or cells: E. coli BL21 (DE3)
T1 sequence (P17752 1-444): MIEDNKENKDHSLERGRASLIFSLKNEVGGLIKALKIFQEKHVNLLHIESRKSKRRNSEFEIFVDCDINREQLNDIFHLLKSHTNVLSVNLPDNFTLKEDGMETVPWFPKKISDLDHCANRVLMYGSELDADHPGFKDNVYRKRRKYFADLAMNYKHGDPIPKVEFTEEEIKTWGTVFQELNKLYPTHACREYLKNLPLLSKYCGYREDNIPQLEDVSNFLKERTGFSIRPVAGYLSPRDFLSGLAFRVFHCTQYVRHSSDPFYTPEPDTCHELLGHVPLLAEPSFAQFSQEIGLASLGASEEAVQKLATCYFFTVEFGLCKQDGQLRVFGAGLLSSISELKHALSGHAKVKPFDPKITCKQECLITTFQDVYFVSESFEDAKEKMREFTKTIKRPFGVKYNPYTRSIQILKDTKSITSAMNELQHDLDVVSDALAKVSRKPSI
In short: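 Final mix: 15 nM MBP-TPH1, 30 μM Trp, 36 μM 6-methyltetrahydropterin, 25 μM ferrous ammonium sulfate, 50 mM MES pH 7.1, 1% DMSO, room temperature.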

[5] = system: jejunal mucosal 5-HT in mice (C57 BL6); assay: Intestinal 5-HT depletion assay (Example B, single 150 mg/kg oral dose); type: in vivo, mouse; details: one day after oral administration of a single 150 mg/kg dose, P-value class (ANOVA)
In short: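 C57 BL6 mice received one 150 mg/kg oral gavage dose; jejunal mucosa was homogenized in acidic trichloroacetic acid buffer and 5-HT measured by HPLC. Levels normalized to BCA protein, expressed as mean percent reduction versus vehicle ± SEM; ANOVA significance.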

For `N[C@@H](Cc1ccc(Cl)cc1)C(=O)O` (racemic) [pCPA, p-chlorophenylalanine], which “efficacy against chemotherapy-induced emesis and diarrhea” value [1] is on record?
Its value is “proven effective in treating chemotherapy-induced emesis, as well as diarrhea”.

And the “TPH inhibition (in words)” value (TPH)?
Its value is “very weak and unselective irreversible inhibitor of TPH”.

What about the CNS side effects ([2]; patients and animals) of the same compound?
Its CNS side effects is “linked to the onset of depression and other alterations of CNS functions”.

For `COc1cc(-c2ccc([C@@H](Oc3cc(N4CCC5(CC4)CN[C@H](C(=O)O)C5)nc(N)n3)C(F)(F)F)c(-n3ccc(C)n3)c2)ccn1` [Example 1n, (S)-8-(2-amino-6-((R)-2,2,2-trifluoro-1-(4-(2-methoxypyridin-4-yl)-2-(3-methyl-1H-pyrazol-1-yl)phenyl)ethoxy)pyrimidin-4-yl)-2,8-diazaspiro[4.5]decane-3-carboxylic acid], which “Efficacy (statistical significance of reduction of mucosal 5-HT concentrations relative to vehicle)” value [3] is on record?
Its value is “*** (*** refers to P<0.005)”.

What about the IC50 [4] of the same compound?
Its IC50 is less than 0.05 µM.

What about the “Efficacy (statistical significance of reduction of mucosal 5-HT concentrations relative to vehicle)” value [5] of the same compound?
The value was “** (** refers to P<0.01)”.

Which results are given for `CCCCc1ccc([C@@H](Oc2cc(N3CCC4(CC3)CN[C@H](C(=O)O)C4)nc(N)n2)C(F)(F)F)c(-n2ccc(C)n2)c1` [Example 12c, (S)-8-(2-amino-6-((R)-1-(4-butyl-2-(3-methyl-1H-pyrazol-1-yl)phenyl)-2,2,2-trifluoroethoxy)pyrimidin-4-yl)-2,8-diazaspiro[4.5]decane-3-carboxylic acid]?
Efficacy (statistical significance of reduction of mucosal 5-HT concentrations relative to vehicle) [3]: *** (*** refers to P<0.005); IC50 [4]: < 0.05 µM; Efficacy (statistical significance of reduction of mucosal 5-HT concentrations relative to vehicle) [5]: *** (*** refers to P<0.005)

What does the source list for `Nc1nc(O[C@H](c2ccc(-c3ccc4ncccc4c3)cc2)C(F)(F)F)cc(N2CCC3(CC2)CN[C@H](C(=O)O)C3)n1` [Example 55bg, (S)-8-(2-amino-6-((R)-2,2,2-trifluoro-1-(4-(quinolin-6-yl)phenyl)ethoxy)pyrimidin-4-yl)-2,8-diazaspiro[4.5]decane-3-carboxylic acid]?
Efficacy (statistical significance of reduction of mucosal 5-HT concentrations relative to vehicle) [3]: *** (*** refers to P<0.005); IC50 [4]: < 0.05 µM; Efficacy (statistical significance of reduction of mucosal 5-HT concentrations relative to vehicle) [5]: *** (*** refers to P<0.005)

For `C#Cc1ccc(C[C@H](N)C(=O)O)cc1` [p-Ethynyl phenylalanine], which “TPH inhibition (in words)” value (TPH) is on record?
Its value is “more selective and more potent TPH inhibitor than pCPA”.

What about the “effect on central 5-HT production” value ([2]; in vivo) of the same compound?
The value was “affects central 5-HT production”.

Reference: patent US11759462B2, “Spirocyclic compounds as tryptophan hydroxylase inhibitors” (priority 2013, dated 2023)
